Assay type in all cases: functional, cell-based
The subject of one assay is U-266. The experiment in a line: Cytotoxicity against human U266 cells after 24 hrs by MTT assay. The following applies: U-266, 24 h.
For a further assay, the system named is HL-60. The experiment in a line: Cytotoxicity against human HL60 cells after 24 hrs by MTT assay. The following applies: HL-60, 24 h.
A further assay relates to SGC-7901. The experiment in a line: Cytotoxicity against human SGC7901 cells after 24 hrs by MTT assay. The following applies: SGC-7901, 24 h.
For the next assay, the system named is A549. The experiment in a line: Cytotoxicity against human A549 cells after 24 hrs by MTT assay. The settings on record: A549, 24 h.
Assay [1] in a line: Cytotoxicity against human Bel7404 cells after 24 hrs by MTT assay. The following applies: BEL-7404, 24 h.
The next assay has as its system HepG2. The experiment in a line: Cytotoxicity against human HepG2 cells after 24 hrs by MTT assay. The following applies: HepG2, 24 h.

`CC1(C)CC[C@]23CO[C@@]4(CC[C@@H]5[C@@]6(C)CC[C@H](O[C@@H]7OC[C@H](O[C@@H]8O[C@H](CO)[C@@H](O)[C@H](O)[C@H]8O[C@@H]8OC[C@@H](O)[C@H](O)[C@H]8O)[C@H](O)[C@H]7O)[C@@](C)(CO)[C@@H]6CC[C@@]5(C)[C@]4(C)CC2=O)[C@@H]3C1` [ANAGALLIGENONE-3-O-[BETA-D-XYLOPYRANOSYL(1->2)-BETA-D-GLUCOPYRANOSYL(1->4)-ALPHA-L-ARABINOPYRANOSIDE]]: the IC50 with U-266 worked out at 10.4 µM; with HL-60, 10.3 µM; with SGC-7901 it was 9.24 µM; with A549, 10.9 µM; in assay [1], 9.14 µM; with HepG2, 8.87 µM.
Regarding `CC1(C)CC[C@]23CO[C@@]4(CC[C@@H]5[C@@]6(C)CC[C@H](O[C@@H]7OC[C@H](O[C@@H]8O[C@H](CO)[C@@H](O)[C@H](O)[C@H]8O)[C@H](O)[C@H]7O)[C@@](C)(CO)[C@@H]6CC[C@@]5(C)[C@]4(C)CC2=O)[C@@H]3C1` [ANAGALLIGENONE-3-O-[BETA-D-GLUCOPYRANOSYL(1->4)-ALPHA-L-ARABINOPYRANOSIDE], the IC50 in the assay with U-266 is 13.9 µM; in the assay with HL-60, 16.3 µM; with SGC-7901 it was 19 µM; in the assay on A549, 14.6 µM; in assay [1] it was 17.3 µM; in the assay on HepG2 it was 16.2 µM.
Regarding `CC1(C)C[C@@H]2[C@]3(CO[C@@]24CC[C@@H]2[C@@]5(C)CCC(=O)[C@@](C)(CO)[C@@H]5CC[C@@]2(C)[C@]4(C)CC3=O)[C@@H](O)C1`, the IC50 (in the assay on U-266; in the assay on HL-60; with SGC-7901; with A549; in assay [1]; in the assay on HepG2) was greater than 100 µM in each case.
`CC(=O)O[C@H]1CC(C)(C)C[C@@H]2[C@]13CO[C@@]21CC[C@@H]2[C@@]4(C)CC[C@H](O[C@@H]5OC[C@H](O[C@@H]6O[C@H](CO)[C@@H](O)[C@H](O)[C@H]6O)[C@H](O)[C@H]5O[C@@H]5O[C@H](CO)[C@@H](O)[C@H](O)[C@H]5O[C@@H]5OC[C@@H](O)[C@H](O)[C@H]5O)C(C)(C)[C@@H]4CC[C@@]2(C)[C@]1(C)C[C@H]3O`: the IC50 in the assay on U-266 was 8.83 µM; in the assay with HL-60 it was 6.8 µM; with SGC-7901, 7.69 µM; in the assay with A549, 5.28 µM; in assay [1], 5.88 µM; with HepG2 it was 4.92 µM.
`CC1(C)CC[C@]23CO[C@@]4(CC[C@@H]5[C@@]6(C)CC[C@H](O[C@@H]7OC[C@H](O)[C@H](O)[C@H]7O)[C@@](C)(CO)[C@@H]6CC[C@@]5(C)[C@]4(C)CC2=O)[C@@H]3C1` [ANAGALLIGENONE-3-O-ALPHA-L-ARABINOPYRANOSIDE]: the IC50 with U-266 was 94.8 µM; in the assay with HL-60, greater than 100 µM; with SGC-7901, greater than 100 µM; in the assay on A549 it was 85.3 µM; in assay [1], 75.5 µM; with HepG2, 55.4 µM.
Take `CC1(C)C[C@@H]2[C@]3(CO[C@@]24CC[C@@H]2[C@@]5(C)CC[C@H](O)[C@@](C)(CO)[C@@H]5CC[C@@]2(C)[C@]4(C)CC3=O)[C@@H](O)C1`: the IC50 (in the assay on U-266; with HL-60; with SGC-7901; in the assay with A549; in assay [1]; with HepG2) was greater than 100 µM throughout.

(Values after ChEMBL document CHEMBL2417448, “Cytotoxic triterpenoids from Lysimachia parvifolia” (Eur J Med Chem, 2013).)
